Data as given in patent US10508124B2, “Xanthene protective agent” (priority 2016, dated 2019).
Converted amounts (≈) assume the structure as drawn. Where a SMILES comes first, the peptide text is derived from it.

Assay: physchem
Format: physicochemical
Description: Peptide used as a model: H-Phe-Leu-NH2
H-Phe-Leu-NH2 and H-Phe-Leu-NH-(TIPS2-Xtn) were synthesized, and each compound was saturated in cyclopentyl methyl ether (CPME) at 25° C. to measure the solubility of each compound.
In regard to H-Phe-Leu-NH2 not bound to a TIPS type protective agent, 0.5 mM of the peptide dissolved in CPME. […] Herein, H-Phe-Leu-NH2 and H-Phe-Leu-NH-(TIPS2-Xtn) have the following structures.

Row | SMILES | solubility [mM] | solubility in CPME relative to unprotected H-Phe-Leu-NH2 [times]
1 | CC(C)C[C@H](NC(=O)[C@@H](N)Cc1ccccc1)C(N)=O [H-Phe-Leu-NH2, reference compound] (H-Phe-Leu-NH2) | 0.5 (≈ 0.139 mg/mL) | –
2 | CC(C)C[C@H](NC(=O)[C@@H](N)Cc1ccccc1)C(=O)NC1c2ccc(OCCCCCCCCCCCO[Si](C(C)C)(C(C)C)C(C)C)cc2Oc2cc(OCCCCCCCCCCCO[Si](C(C)C)(C(C)C)C(C)C)ccc21 [H-Phe-Leu-NH-(TIPS2-Xtn)] | 586 (≈ 670 mg/mL) | ≥ 1100
